In patent publication US6994987B1, “Process for producing tripeptides” (Calpis Co., Ltd., priority 1999, dated 2006):
No end group written: not given here.

Columns and labels:
Type in all cases: biochemical
Carboxypeptidase Y = target: T1, Carboxypeptidase Y (Saccharomyces cerevisiae, UniProt P00729); assay: Reactivity of peptidase formulations against synthetic peptides: carboxypeptidase Y alone; conditions: for Existence of IPP or VPP peaks: no aminopeptidase, carboxypeptidase Y, phosphate buffer pH 5.3, 37° C. 3 hours, HPLC
T1 construct: purchased Sigma Chemical Co
T1 sequence (P00729 112-532): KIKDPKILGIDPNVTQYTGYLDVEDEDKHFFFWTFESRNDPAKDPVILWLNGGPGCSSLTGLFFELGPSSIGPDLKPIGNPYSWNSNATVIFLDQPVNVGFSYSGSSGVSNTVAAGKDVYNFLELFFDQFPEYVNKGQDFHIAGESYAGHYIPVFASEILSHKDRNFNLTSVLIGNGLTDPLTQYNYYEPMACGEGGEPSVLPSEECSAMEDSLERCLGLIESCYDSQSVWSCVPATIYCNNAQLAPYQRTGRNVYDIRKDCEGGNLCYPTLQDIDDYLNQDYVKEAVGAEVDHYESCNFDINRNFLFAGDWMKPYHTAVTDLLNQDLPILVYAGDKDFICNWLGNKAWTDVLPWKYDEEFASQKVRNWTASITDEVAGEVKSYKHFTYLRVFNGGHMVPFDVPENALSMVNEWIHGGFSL
Protocol: (§1) Peptides shown in Table 1 were chemically synthesized. […] All of these synthetic peptides were synthesized with the automatic peptide synthesizing machine PPSM-8 (manufactured by Shimadzu Corporation).
(§2) Each synthetic peptide was dissolved at the concentration of 10 μg/ml in 100 mM phosphate buffer pH 5.3 as to Experiments 1-1 to 1-4, 1-10 to 1-12, 1-16 and 1-21, or in 50 mM Tris-HCl buffer pH 8.0 as to other Experiments. Each of various peptidase formulations shown in Table 1 was then added so that the concentration thereof became 0.01 μg/ml, and the reaction was performed at 37° C. for 3 hours. After the enzyme reaction, the mixture was analyzed by the reverse phase high performance liquid chromatography (HPLC). […] The fractions of the detected peak were collected and amino acid sequence analysis was performed by the automatic peptide analyzer model PPSQ-10 (manufactured by Shimadzu Corporation). […]

[1] = system: fraction 4 (peptidase derived from Lactobacillus helveticus); assay: Reaction of fraction 4 with chemically synthesized intermediate peptides as substrates; conditions: substrate peptide reacted with fraction 4, HPLC
Protocol: A milk medium containing 9 wt % skim milk was inoculated with lactic acid bacteria Lactobacillus helveticus CM4 strain (deposited at National Institute of Bioscience and Human-Technology (1-3, Higashi 1 chome Tsukuba-shi Ibaraki-ken 305, Japan) under deposition number FEFM BP-6060 on Aug. 15, 1997) (referred to hereinbelow as CM4 strain). The bacteria were cultured at 37° C. for 24 hours. The CM4 strain has been accorded the aforementioned accession number under the Budapest Treaty on the International Recognition of the Deposit of Microorganisms for the Purposes of Patent Procedure. All restrictions on the availability to the public of this strain will be irrevocably removed upon the granting of a patent. To 500 ml of a fresh 9 wt % milk medium, cultured mixture was added at 5 wt %. […] was performed at 37° C. and at the pH of 6.5. Five hours after the start of pH stat culturing, sodium citrate was added so that the final concentration thereof became 2 wt %. The mixture was stirred for 30 minutes at room temperature. After confirming that the cultured liquid became clear, cell bodies were collected by centrifugation at 5000 g for 10 minutes. The cell bodies were washed twice with 50 mM phosphate buffer containing 150 mM NaCl pH 6.8, and suspended in 20 ml of 50 mM tris-Cl pH 8.0, and then crushed with an ultrasonic crusher (model 5203, manufactured by Ohtake Works Co.). Centrifugation at 15000 g was performed for 10 minutes for removing the precipitant and collecting the supernatant as a crude extract. 5 ml of the crude extract was passed through 1 ml of DEAE-sepharose column (manufactured by Pharmacia Corporation) that has been pre-equilibrated with the tris buffer. The column was washed with 5 ml of the tris buffer and then sequentially washed with 3 ml of tris buffers containing 50 mM, 100 mM, 150 mM, 200 mM, 300 mM and 500 mM NaCl, for fractionation.
An intermediate peptide Val-Pro-Pro-Phe-Leu was chemically synthesized. The synthesized peptide was dissolved at 10 μg/ml in 100 mM phosphate buffer (pH 6.1). This solution and one of the fractions 1 to 6 were mixed at the volume ratio of 9:1, and reacted at 37° C. for 30 minutes.
Further, it was confirmed that the tripeptide Ile-Pro-Pro was produced from the peptides Ile-Pro-Pro-Leu-Thr-Gln-Thr and Ile-Pro-Pro-Leu-Thr.

[2] = system: synthetic peptide consisting of the 28 amino acids (SEQ ID NO: 28); assay: Two step reaction of proteinase and fraction 4 on the 28 amino acid synthetic peptide; conditions: proteinase 0.1 μg/ml on 28-mer 10 μg/ml, pH 6.1, 37° C. 5 hours, heat inactivation, then fraction 4; HPLC
Protocol: To 10 μg/ml of the synthetic peptide consisting of the 28 amino acids that is the same as the one used in Experiment 2 (in 100 mM phosphate buffer pH 6.1), each of the commercially available proteinase enzymes for food processing shown in Table 4 was added at 0.1 μg/ml. The mixture was reacted at 37° C. for 5 hours. After finishing the reaction, the reacted liquid was heated at 100° C. for 5 minutes for inactivating the proteinase, and then reacted with the fraction 4 obtained in Experiment 4.

[3] = system: Aminipeptidase I + Carboxypeptidase Y; assay: Reactivity of peptidase formulations against synthetic peptides: aminopeptidase I + carboxypeptidase Y; conditions: phosphate buffer pH 5.3, 37° C. 3 hours, HPLC
Protocol: as §1, §2

IPPLTQT
Existence of IPP or VPP peaks (Carboxypeptidase Y): IPP | Peptide produced [1]: Ile Pro Pro | Peptide produced ([1]; listed as Ile-Pro-Pro-Leu-Thr-Gln-Thr): Ile-Pro-Pro

Ile Pro Pro Leu Thr (IPPLT)
Peptide produced [1]: Ile Pro Pro | Peptide produced ([1]; listed as Ile-Pro-Pro-Leu-Thr): Ile-Pro-Pro

Pepsin
Production of the tripeptides Ile-Pro-Pro and Val-Pro-Pro [2]: No

QNIPPLTQT
Existence of IPP or VPP peaks [3]: IPP | Existence of IPP or VPP peaks ([3]; listed as Gln-Asn-Ile-Pro-Pro-Leu-Thr-Gln-Thr): production of the tripeptides Ile-Pro-Pro or Val-Pro-Pro was also recognized

VPPFLQ
Existence of IPP or VPP peaks (Carboxypeptidase Y): VPP | Peptide produced [1]: Val Pro Pro | Peptide produced ([1]; listed as Val-Pro-Pro-Phe-Leu-Gln): Val-Pro-pro

VVVPPFLQ
Existence of IPP or VPP peaks [3]: VPP | Existence of IPP or VPP peaks ([3]; listed as Val-Val-Val-Pro-Pro-Phe-Leu-Gln): production of the tripeptides Ile-Pro-Pro or Val-Pro-Pro was also recognized

Val Pro Pro Phe (VPPF)
Existence of IPP or VPP peaks (Carboxypeptidase Y): VPP

Val Pro Pro Phe Leu (VPPFL)
Peptide produced [1]: Val Pro Pro | Peptide produced ([1]; listed as Val-Pro-Pro-Phe-Leu): Val-Pro-pro

B1: carboxy peptidase Y: Carboxypeptidase Y (manufactured by Sigma Chemical Co.) (protein, UniProt P00729 112-532, looked up)
Carboxypeptidase Y: T1 sequence (P00729 112-532)
Bond cleavage by the enzyme (in words) (Carboxypeptidase Y; reaction at pH 5.3): capable of effectively cleave the bond between Pro and Leu in Pro-Pro-Leu and the bond between Pro and Phe in Pro-Pro-Phe

B2: Trypsin (Type I): proteinase, bovine pancreas, Sigma Chemical Co. (protein, UniProt P00760 24-246, looked up)
Serine protease 1: IVGGYTCGANTVPYQVSLNSGYHFCGGSLINSQWVVSAAHCYKSGIQVRLGEDNINVVEGNEQFISASKSIVHPSYNSNTLNNDIMLIKLKSAASLNSRVASISLPTSCASAGTQCLISGWGNTKSSGTSYPDVLKCLKAPILSDSSCKSAYPGQITSNMFCAGYLEGGKDSCQGDSGGPVVCSGKLQGIVSWGSGCAQKNKPGVYTKVCNYVSWIKQTIASN
Production of the tripeptides Ile-Pro-Pro and Val-Pro-Pro [2]: No

B3: Subtilisin Carlsberg: proteinase, Bacillus licheniformis, Sigma Chemical Co. (protein, UniProt P00780 106-379, looked up)
Subtilisin Carlsberg: AQTVPYGIPLIKADKVQAQGFKGANVKVAVLDTGIQASHPDLNVVGGASFVAGEAYNTDGNGHGTHVAGTVAALDNTTGVLGVAPSVSLYAVKVLNSSGSGSYSGIVSGIEWATTNGMDVINMSLGGASGSTAMKQAVDNAYAKGVVVVAAAGNSGSSGNTNTIGYPAKYDSVIAVGAVDSNSNRASFSSVGAELEVMAPGAGVYSTYPTNTYATLNGTSMASPHVAGAAALILSKHPNLSASQVRNRLSSTATYLGSSFYYGKGLINVEAAAQ
Production of the tripeptides Ile-Pro-Pro and Val-Pro-Pro [2]: No

B4: Subtilisin BPN: proteinase, Bacillus amyloliquefaciens, Sigma Chemical Co. (protein, UniProt P00782 108-382, looked up)
Subtilisin BPN': AQSVPYGVSQIKAPALHSQGYTGSNVKVAVIDSGIDSSHPDLKVAGGASMVPSETNPFQDNNSHGTHVAGTVAALNNSIGVLGVAPSASLYAVKVLGADGSGQYSWIINGIEWAIANNMDVINMSLGGPSGSAALKAAVDKAVASGVVVVAAAGNEGTSGSSSTVGYPGKYPSVIAVGAVDSSNQRASFSSVGPELDVMAPGVSIQSTLPGNKYGAYNGTSMASPHVAGAAALILSKHPNWTNTQVRSSLENTTTKLGDSFYYGKGLINVQAAAQ
Production of the tripeptides Ile-Pro-Pro and Val-Pro-Pro [2]: No
